11 compounds from patent US20090155440A1, “Salt Enhancing Compounds and Use” (GIVAUDAN SA, priority 2005, published 2009) can be followed below.

Assay type in all cases: in vivo
Experiment [1] deals with sensory panel. In words: Sensory triangle test in chicken broth, Examples 3a and 3b. The settings on record: for Sensory results (compared to 1): chicken broth, Example 3b; for Kokumi Intensity (0-5): scale 0 to 5, 5 most intensive, reference 2. The method, then:
(§1) Unless otherwise indicated, all sensory tests are triangle tests and are performed according to the guidelines in “Amtliche Sammlung von Untersuchungsverfahren nach § 35 LMBG (Lebensmittel-und Bedarfsgegenständegesetz)”; L 00.90 7, Untersuchung von Lebensmitteln, Sensorische Prüfverfahren, Dreiecksprüfung (Übernahme der gleichnahmigen Deutschen Norm DIN ISO 4120, Ausgabe Januar 1995), as follows:
The sensory panel is trained to evaluate the taste of aqueous solutions (4 ml each) of the following standard taste compounds by using a triangle test as described in the literature (Wieser and Belitz, Z. Lebensm. Unters. Forsch., 1975,159, 65-72): sucrose (40 mmol/L) for sweet taste; citric acid (5 mmol/L) for sour taste; NaCl (12 mmol/L) for salty taste; caffeine (2 mmol/L) for bitter taste; and monosodium glutamate (MSG; 6 mmol/L) for umami taste. For kokumi taste, a solution of glutathione (10 mmol/L) in diluted chicken broth concentrate (Goumet Bouillon Huhn, Maggi, Singen, Germany; 3 g/100 g bottled water (Evian®)) is prepared and compared to the taste of chicken broth with no glutathione added.
(§2) For recording the taste profiles, samples are prepared as indicated in the examples below. Taste profiles of samples are determined in a triangle test in three different sessions. Panellists refrain from eating or drinking for at least 1 hour prior to the session. At the start of the session and before each trial, the subject rinsed with water and expectorated. The participants receive a set of two blanks and one taste sample. Liquid samples are swirled around in the mouth briefly and expectorated. Solid samples are chewed for 20 seconds and then expectorated. […] Each sample with additive is compared to two reference samples without additives. Kokumi intensity is rated from 0-5 according to a scale from 0 to 5 (with 5 most intensive). The additive is added to a consumable and the sample is homogenised. The samples are presented to the sensory panel directly after homogenisation. The sensory panel included 6-8 trained individuals with exception of example 4, here the panel consists of 10 trained individuals.
Chicken broth is prepared by diluting 3 g of a chicken broth concentrate (Gourmet Bouillon Huhn, Nestle) with 100 ml water. Additives are added as specified in table below in a concentration of 10 mmol/L. The pH-value of all samples is adjusted to 6.5 using formic acid (0.1 mol/L) or sodium hydroxide (0.1 mol/L).
Kokumi intensity is rated according to a scale from 0 to 5 (with 5 most intensive). […] The additive is added to a consumable and the sample is homogenised.
The samples are presented to the sensory panel directly after homogenisation. The sensory panel included 8 trained individuals.
The samples are tested as described above in example 3a.

Experiment [2] concerns sensory panel. In words: Sensory test in cream cheese, Example 4. The settings on record: for Sensory results (compared to 1): versus reference without additives; for Sensory results compared to 2: versus NaCl Reference (2000 ppm). How it is done:
as §1, §2
Samples are compared by a panel of 10 trained panelists.

Experiment [3] has as its system sensory panel. In words: Isointensity triangle test, S-substituted peptides in sodium salt solution (30 mmol/L NaCl), Example 1a. The settings on record: compound 10 mmol/L in aqueous NaCl 30 mmol/L, pH 6.5; reference without additive 30 mmol/L. The method, then:
Unless otherwise indicated, all sensory tests are triangle tests and are performed according to the guidelines in “[…] von […]-und Bedarfsgegenständegesetz)”; L 00.90 7, Untersuchung von Lebensmitteln, Sensorische […] Deutschen Norm DIN ISO 4120, Ausgabe Januar 1995), as follows: The sensory panel is trained to evaluate the taste of aqueous solutions (4 ml each) of the following standard taste compounds by using a triangle test as described in the literature ([…] and Belitz, Z. Lebensm. Unters. Forsch., 1975,159, 65-72): sucrose (40 mmol/L) for sweet taste; citric acid (5 mmol/L) for sour taste; […] All sensory analyses are performed in a sensory panel room at 22-25° C. over three different sessions by a trained panel of 8 to 10 individuals. For recording the taste profiles, samples are prepared as indicated in the examples below. Taste profiles of samples are determined in a triangle test in three different sessions. Panellists refrain from eating or drinking for at least 1 hour prior to the session. At the start of the session and before each trial, the subject rinsed with water and expectorated. The participants receive a set of two blanks and one taste sample. Liquid samples are swirled around in the mouth briefly and expectorated. Solid samples are chewed for 20 seconds and then expectorated. […] Each sample with additive is compared to two reference samples without additives. Kokumi intensity is rated from 0-5 according to a scale from 0 to 5 (with 5 most intensive). The additive is added to a consumable and the sample is homogenised. The samples are presented to the sensory panel directly after homogenisation. The sensory panel included 6-8 trained individuals with exception of example 4, here the panel consists of 10 trained individuals. The compounds listed in the table below are dissolved in an aqueous solution (pH 6.5) of NaCl (30 mmol/L).

Experiment [4] has as its system sensory panel. The experiment can be described thus: Isointensity triangle test in sodium and potassium salt solution (30 mmol/L NaCl, 15 mmol/L KCl), Example 1b. The settings on record: NaCl 30 mmol/L + KCl 15 mmol/L, salt enhancer 10 mmol/L; without enhancer 40 mmol/L. How it is done: Unless otherwise indicated, all sensory tests are triangle tests and are performed according to the guidelines in “[…] von […]-und Bedarfsgegenständegesetz)”; L 00.90 7, Untersuchung von Lebensmitteln, Sensorische […] Deutschen Norm DIN ISO 4120, Ausgabe Januar 1995), as follows: For recording the taste profiles, samples are prepared as indicated in the examples below. Taste profiles of samples are determined in a triangle test in three different sessions. Panellists refrain from eating or drinking for at least 1 hour prior to the session. At the start of the session and before each trial, the subject rinsed with water and expectorated. The participants receive a set of two blanks and one taste sample. Liquid samples are swirled around in the mouth briefly and expectorated. Solid samples are chewed for 20 seconds and then expectorated. […] Each sample with additive is compared to two reference samples without additives. Kokumi intensity is rated from 0-5 according to a scale from 0 to 5 (with 5 most intensive). The additive is added to a consumable and the sample is homogenised. The samples are presented to the sensory panel directly after homogenisation. […] KCl is often used in small concentrations to reduce sodium without loss of salty taste. […] For the samples compared and the results see the table below.

Experiment [5] deals with sensory panel. The experiment can be described thus: Sensory test in ketchup, Example 5. As to conditions: additive 500 ppm. How it is done:
as §1
as §2, with “The sensory panel included 6-8 trained individuals with exception of example 4, here the panel consists of 10 trained individuals.” left out

As to `[Cl-].[Na+]` [NaCl, sodium chloride, reference compound], the “Sensory results (compared to 1)” value with sensory panel [1] (additive 2000 ppm) and in the experiment on sensory panel [2] (additive 2000 ppm) was “More salty” in each case.

As to `CCOC(=O)C(CSC(CC(=O)O)C(=O)O)NC(=O)CC[C@H](N)C(=O)O` (stereo partly drawn) [S-(α,β-dicarboxyethyl) γ-L-glutamyl-cysteine ethyl ester], the “concentration of an isointense NaCl-solution” value (“concentration” for short) in the experiment with sensory panel [3] is recorded as 48 mmol/L.

Take `N[C@@H](CCC(=O)N[C@@H](CSC(CCC(=O)O)C(=O)O)C(=O)NCC(=O)O)C(=O)O` (stereo partly drawn) [β-S-(α,γ-dicarboxypropyl) γ-L-glutamyl-L-cysteinyl-glycine]: the “concentration” value with sensory panel [3] is 48 mmol/L.

Regarding `N[C@@H](CCC(=O)N[C@@H](CSC(CC(=O)O)C(=O)O)C(=O)O)C(=O)O` (stereo partly drawn) [S-(α,β-dicarboxyethyl) γ-L-glutamyl-cysteine], the “concentration” value with sensory panel [3] is recorded as 60 mmol/L. The “Sensory results compared to 2” value in the experiment with sensory panel [2] (additive 1000 ppm) was “greater effect on saltiness than the addition of NaCl”.

As for `N[C@@H](CCC(=O)N[C@@H](CSCCC(=O)O)C(=O)NCC(=O)O)C(=O)O` [β-S-(carboxyethyl) γ-L-glutamyl-L-cysteinyl-glycine], in the experiment on sensory panel [3], the “concentration” value is 38 mmol/L.

As to `CCOC(=O)[C@@H](N)CSC(CC(=O)O)C(=O)O` (stereo partly drawn) [S-(α,β-dicarboxyethyl) cysteine ethyl ester], the “concentration” value in the experiment on sensory panel [3] was found to be 42 mmol/L.

For the compound `N[C@@H](CCC(=O)N[C@@H](CS)C(=O)NCC(=O)O)C(=O)O` [GSH reduced, glutathione], in the experiment with sensory panel [1] (chicken broth pH 6.5, additive 10 mmol/L), the “Kokumi Intensity (0-5)” value stood at 3.5.

Take `N[C@@H](CCC(=O)N[C@@H](CSC(CC(=O)O)C(=O)O)C(=O)NCC(=O)O)C(=O)O` (stereo partly drawn) [S-(α,β-dicarboxyethyl) γ-L-glutamyl-L-cysteinyl-glycine]: the “concentration” value in the experiment on sensory panel [3] is reported as 48 mmol/L; with sensory panel [4], 57 mmol/L. In the experiment with sensory panel [1] (chicken broth pH 6.5, additive 400 ppm), the “Kokumi Intensity (0-5)” value amounted to 3.5. Besides, the “Sensory results compared to 2” value in the experiment on sensory panel [2] (additive 1000 ppm) was “greater effect on saltiness than the addition of NaCl”. Further, the “Sensory results (compared to 1)” value in the experiment with sensory panel [5] is “Slightly more salty”.

For `COC(=O)[C@@H](N)CSC(CC(=O)O)C(=O)O` (stereo partly drawn) [S-(α,β-dicarboxyethyl) cysteine methyl ester], the “concentration” value in the experiment on sensory panel [3] stood at 38 mmol/L.

For `N[C@@H](CCC(=O)O)C(=O)[O-].[Na+]` [MSG, monosodium glutamate], the “Sensory results (compared to 1)” value in the experiment on sensory panel [1] (additive 2000 ppm) is listed as “Higher umami intensity”.

As to `N[C@@H](CSC(CC(=O)O)C(=O)O)C(=O)O` (stereo partly drawn) [S-(α,β-dicarboxyethyl)-L-cysteine, S-(α,β-dicarboxyethyl) cysteine], the “concentration” value with sensory panel [3] is recorded as 40 mmol/L. Further, the “Sensory results (compared to 1)” value with sensory panel [1] (additive 400 ppm) and in the experiment with sensory panel [2] (additive 1000 ppm) was “More salty” throughout. Moreover, the “Sensory results compared to 2” value in the experiment with sensory panel [2] (additive 1000 ppm) is listed as “Slightly more salty”.
